Test results taken from ChEMBL document CHEMBL2321761, “Discovery of novel dual inhibitors of the wild-type and the most prevalent drug-resistant mutant, S31N, of the M2 proton channel from influenza A virus” (J Med Chem, 2013).
The source made the active and inactive calls. The calls are words filed in the database; no cut-off is given here.

Tests used:
Influenza A virus [1] = test: Antiviral activity against wild type influenza A virus A/WSN/33-N31S infected in dog MDCK cells at 1 uM after 2 days by naphthalene black dye staining based plaque reduction assay; type: functional, organism-based
Influenza A virus [2] = test: Antiviral activity against influenza A virus A/WSN/33-S31N infected in dog MDCK cells after 2 days by naphthalene black dye staining based plaque reduction assay; type: functional, organism-based

SMILES | inhibition (Influenza A virus [1]) | EC50 (Influenza A virus [2]) [µM]
Oc1ccc(CNC23CC4CC(CC(C4)C2)C3)c(O)c1 | Active | 3.2
NC12CC3CC(CC(C3)C1)C2 [AMANTADINE] | – | 22.5
